# Experimental data published in patent US10471025B2, “Compositions for use in treating parkinson's disease and related disorders” (Technophage, Investigação E Desenvolvimento Em …, priority 2015, dated 2019).
# Where “and” joins values, the source holds several entries; their conditions need not be identical. Equal values may be shown once. Entries after “also recorded” stand apart in the source; their conditions may differ. Read-outs that look alike come from different tables or passages of the source.
# Legend:
# [1] = cited from earlier work
# COX-2 = biological target: T1, COX-2 (Homo sapiens, UniProt P35354); conditions: cited from earlier work
# T1 sequence (P35354 18-604): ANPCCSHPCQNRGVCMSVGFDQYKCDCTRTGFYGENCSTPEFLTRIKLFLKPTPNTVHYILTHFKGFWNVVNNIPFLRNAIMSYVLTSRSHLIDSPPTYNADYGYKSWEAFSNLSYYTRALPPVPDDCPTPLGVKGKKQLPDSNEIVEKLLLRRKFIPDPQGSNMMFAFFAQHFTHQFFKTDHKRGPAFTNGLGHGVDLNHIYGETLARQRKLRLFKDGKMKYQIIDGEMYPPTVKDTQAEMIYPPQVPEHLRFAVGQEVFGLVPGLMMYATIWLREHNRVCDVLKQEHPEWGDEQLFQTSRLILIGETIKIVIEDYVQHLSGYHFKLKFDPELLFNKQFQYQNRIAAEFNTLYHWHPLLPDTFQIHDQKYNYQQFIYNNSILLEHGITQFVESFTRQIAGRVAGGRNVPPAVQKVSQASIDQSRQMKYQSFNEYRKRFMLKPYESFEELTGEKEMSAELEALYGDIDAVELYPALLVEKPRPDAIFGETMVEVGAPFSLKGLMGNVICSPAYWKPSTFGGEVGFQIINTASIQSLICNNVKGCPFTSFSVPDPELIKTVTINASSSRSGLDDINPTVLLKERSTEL
# [2] = in vivo; cited from earlier work
# [3] = cited from earlier work; remark: listed apart in the source
# healthy wild type mice = test: Toxicity assay, welfare and necropsy (Example 6); conditions: tramadol 10 mg/kg in combination with L-Dopa; L-Dopa 18 mg/kg; 24 h
# Procedure: Their behavior was evaluated with open field tests for 1 h after i.p. injection. After 24 h, animals were sacrificed and necropsy was performed
# 9 week old NMRI female mice were used for this assay. Animals were tested for their welfare after two intraperitoneal injections of the test agents using the open field test. Necropsy was done after cervical dislocation. […] Benserazide at 12 mg/kg was administered 30 minutes prior to administration of these compounds, in all groups. Saline was given to the control group.
# After benserazide administration, animals were monitored in the open field for 30 minutes for habituation. […] 24 hours after administration of the compounds, the animals were sacrificed and necropsy performed.
# For administration of the various agents to the animals, two 700 ? L injections were administered 30 minutes apart.
# rat = conditions: rat, cited from earlier work
# mouse = conditions: mouse, cited from earlier work
# 6-OHDA mouse model [4] = test: Rotarod test, unilateral striatal 6-OHDA mice (Example 5); format: in vivo; conditions: daily i.p., dosages tested (C1 and C2)
# dogs = conditions: dog, in vivo, cited from earlier work
# [5] = tested on: 6-OHDA treated zebrafish larvae; test: Rescue of Tyrosine hydroxylase (TH)-positive dopaminergic neurons in 6-OHDA zebrafish larvae; format: in vivo; conditions: for Neurorescue: TH+ neurons at optimal dose, p; for Neuroprotective effect / recovery of TH+ neurons: at the optimal concentration of each molecule
# Procedure: The 7 candidates also were tested in terms of rescue of dopaminergic neurons positive for Tyrosine hydroxylase (Th) in the substancia nigra pars compacta of the test animals. […] Results were normalized for healthy control values (healthy control=100% of neurons). As a control, zebrafish were treated with only the vehicle, ascorbic acid. ‘6-OHDA_ represents results in zebrafish receiving no treatment.
# FIGS. 6E-6G show representative Z-projections of confocal stacks of whole-mount anti-TH immunohistochemistry in 6 days post-fertilization (dpf) of zebrafish larvae (age of the fish) control (FIG. 6E), 6-OHDA (FIG. 6F), and tapentadol treated-larvae (FIG. 6G).
# 6-OHDA mouse model [6] = test: Cylinder test, 6-OHDA mice (Example 5); format: in vivo; set-up: Cylinder test: number of right turns: dose or concentration left out as unconfirmed
# 6-OHDA mouse model [7] = test: Abnormal involuntary movements, 6-OHDA mice (Example 5); format: in vivo; conditions: mouse, in vivo
# Procedure: This condition results in a range of involuntary movements that can be evaluated by video tracking analyses. […] Evaluations were performed during two independent trials, 30 and 90 minutes after treatment administration. […] Nonetheless, forelimb and orofacial involuntary movements are extremely hard to detect, and reading errors occur, considering the size of the animals. Total abnormal involuntary movements are the sum of all 4 different involuntary movements evaluated and is the parameter often reported in the literature.
# As FIGS. 17A-17F show, abnormal involuntary movements were evaluated using the cylinder test 28 days post injection. […] Values mean ě SEM (n=5-8).
# [8] = tested on: 6-OHDA treated zebrafish larvae; test: Co-administration with L-Dopa, total distance 6-OHDA larvae move; format: in vivo; conditions: total distance; L-Dopa 250 or 125 μM
# [9] = 0.01 to 11.4 μg/mL; cited from earlier work
# [10] = tested on: 6-OHDA treated zebrafish larvae; test: LD50 / lethality in the disease context of the zebrafish model
# [11] = tested on: 6-OHDA treated zebrafish larvae; test: Freezing (duration of freezing periods, light/dark stimulus) in 6-OHDA zebrafish larvae; format: in vivo; conditions: for Freezing recovery: optimal concentrations, methylphenidate 25 μM; for Duration of freezing periods, recovery vs 6-OHDA treated larvae: tapentadol 48.5, stavudine 50, nabumetone 0.91 μM, L-Dopa treatment
# Procedure: In the zebrafish model, the locomotor impairment was measured and related with bradykinesia in patients. Tests included evaluating ‘freezing_ in response to a light/dark stimulus. 6-OHDA induced larvae had fewer freezing episodes but spent longer periods in the frozen state. In previous studies, the duration of freezing episodes has been analyzed in PD patients. […] Nonetheless, it is an inhibitor of the neuronal dopamine transporter and since 6-OHDA needs DAT to enter the neuron and induce the disease, methylphenidate may be a false positive.
# As FIGS. 9B-9C show, freezing recovery was tested using 7 candidate molecules at optimal concentrations, in an exemplary experiment with n=8 fish, and methylphenidate and amantadine at 25 ? M.
# [12] = tested on: CY P1A2, CY P2C9, CY P2C19, CY P2D6, and CY P3A4; conditions: cited from earlier work
# [13] = tested on: 6-OHDA treated zebrafish larvae; test: Locomotor behavior rescue (total distance moved, number of jumps) in 6-OHDA zebrafish PD model; format: in vivo; conditions: for Optimal concentration: behavioral experiments and TH+ cell counts; for Number of jumps: concentration validated as recovering the 6-OHDA induced behavior / Total distance travelled, difference between treated larvae and disease control: zebrafish, in vivo
# Excerpt: To model Parkinson ̆s disease (PD), a neurotoxin 6-OHDA (6-hyroxydopamine) based method was used in zebrafish and in mice. In this model, 6-OHDA-lesions induce motor manifestations in zebrafish and in mice, such as reduced locomotor ability, and the loss of dopaminergic neurons. Based on the 6-OHDA PD zebrafish model, compounds from a small molecules library were screened for rescue of the parkinsonian phenotype (Example 1, see below).
# The screen was based on both the recovery of impaired locomotor behavior and dopaminergic neuronal loss.
# Values were normalized for the mean of disease state in each experiment (disease=1). Each plot contains data from 3 independent experiments with a total of 24 larvae. As a control, zebrafish were treated with only the vehicle, ascorbic acid.
# For these experiments, Tubingen (TU) wild-type zebrafish, a specific strain of wild-type zebrafish, were used.
# [14] = cited from earlier work; remark: listed apart in the source
# [15] = in DMSO; cited from earlier work
# [16] = oral 1,000-2,000 mg to steady state
structure (smiles),measurement,setting,value
"COc1ccc2cc(CC(=O)O)ccc2c1 [6MNA, 6-methoxy-2-naphthylacetic acid]",Printed only as 'It is 0.2-0.3%' (after plasma protein binding),"[1]; concentrations typically achieved following 1,000 mg of nabumetone",0.2-0.3%
same,Bound to plasma proteins,[1]; in vivo,more than 99%
same,Elimination half-life,[1]; [16],approximately 24 hours
same,Mean plasma clearance,[1]; [16],20 to 30 mL/min
same,Inhibition of prostaglandin synthesis,COX-2; most likely through binding to the COX-2 and COX-1 receptors,potent inhibitor
CC[C@@H](c1cccc(O[C@@H]2O[C@H](C(=O)O)[C@@H](O)[C@H](O)[C@H]2O)c1)[C@@H](C)CN(C)C [tapentadol-O-glucuronide],Blood-brain barrier crossing,[2],lower permeability through the blood brain barrier
same,"AUC, fold higher compared with normal renal function",[3]; mild renal impairment (CLCR=50 to <80 mL/min),1.5 fold
same,"AUC, fold higher compared with normal renal function",[3]; moderate renal impairment (CLCR=30 to <50 mL/min),2.5 fold
same,Mean accumulation factor,"[3]; multiple (every 6 hour) dose study, 75 to 175 mg tapentadol",1.8
same,"AUC, fold higher compared with normal renal function",[3]; severe renal impairment (CLCR=<30 mL/min),5.5 fold
COc1cccc(C2(O)CCCCC2CN(C)C)c1 (stereo not shown) [tramadol],Necropsy findings,healthy wild type mice,"normal abdominal organs, with the exception of one that had a slight hyperemia in the small intestine"
Cc1cn([C@H]2C=C[C@@H](CO)O2)c(=O)[nH]c1=O [stavudine],LD50,"rat; in vivo, iv","1,200 mg/kg"
same,LD50,"rat; in vivo, po","4,000 mg/kg"
same,LD50,rat,4 g/kg (rat)
same,LD50,"mouse; in vivo, iv","1,000 mg/kg"
same,LD50,"mouse; in vivo, po","1,000 mg/kg"
same,"Rotarod: latency to fall and speed, recovery",6-OHDA mouse model [4],did not have an effect
same,LD50,dogs; iv,"1,680 mg/kg"
same,LD50,dogs; po,"2,000 mg/kg"
same,Neurorescue,[5],confirmed p < 0.09
same,Neuroprotective effect / recovery of TH+ neurons,[5],confirmed
same,Cylinder test: number of right turns,6-OHDA mouse model [6]; parameter disregarded,phenotypic recovery in a very similar way to L-Dopa
same,Cylinder test: number of rearings,"6-OHDA mouse model [6]; vs 6-OHDA group, daily i.p.",did not show recovery
same,Cylinder test: percentage of animals with tremor,"6-OHDA mouse model [6]; vs 6-OHDA group, daily i.p.",did not show recovery
same,Cylinder test: percentage of contralateral paw use,"6-OHDA mouse model [6]; vs 6-OHDA group, daily i.p.",did not show recovery
same,Induction of abnormal involuntary movements,6-OHDA mouse model [7],"None of the treatments, tapentadol or stavudine of the combination, induced involuntary movements"
same,Effect of co-administration with L-Dopa on locomotor recovery,[8],not affected; also recorded: least effective; also recorded: not influenced
same,Protein binding,[9],negligible
same,LD50,[10]; 6-OHDA disease-induced zebrafish larvae,>10 mM
same,LD50,[10]; 6-OHDA zebrafish larvae,"> 10,000 μM"
same,Freezing recovery,[11],positive results; also recorded: reverted freezing
same,"Duration of freezing periods, recovery vs 6-OHDA treated larvae",[11],recovered
same,Inhibition of major cytochrome P450 isoforms,[12],not considered to inhibit
same,Therapeutic window,[13]; 6-OHDA zebrafish larvae,50 to 70 µM
same,Optimal concentration,[13],50 µM
same,Number of jumps: concentration validated as recovering the 6-OHDA induced behavior,[13],50 µM
same,"Total distance travelled, difference between treated larvae and disease control",[13],400 mm
same,Clearance,"[14]; HIV-infected adult and pediatric patients, 1-hour IV infusion",594 ± 164 mL/min
same,Accumulation with repeated administration,"[14]; every 6, 8, or 12 hours",no significant accumulation
same,Renal clearance,[14]; healthy subjects receiving 80 mg PO,272 mL/min
same,"Renal elimination, share of the overall clearance","[14]; humans, regardless of the route",about 40%
same,Half-life,[14]; in adults,48 to 90 min
same,Time of peak plasma concentrations after dosing,[14]; oral administration,≤ 1 h
COc1ccc2cc(CCC(C)=O)ccc2c1 [nabumetone],LD50,rat,(mouse) or 3880 mg/kg
same,LD50,mouse,4290 mg/kg
same,Neurorescue,[5],confirmed
same,Neuroprotective effect / recovery of TH+ neurons,[5],confirmed; also recorded: Recovery was observed
same,Effect of co-administration with L-Dopa on locomotor recovery,[8],the same
same,Solubility,[15],50 mg/ml in
same,Share of dose converted into unidentified metabolites,"[1]; 1,000 mg oral dose",50%
same,Share of dose converted to 6MNA,"[1]; 1,000 mg oral dose",Approximately 35%
same,Absorption from the gastrointestinal tract,[1]; in vivo,well absorbed
same,COX-2 inhibition,COX-2,poor COX-2 inhibitor
same,Embryo lethality,[10]; 18 μM,no dead embryos
same,Embryo lethality,[10]; 27 μM,all of the embryos were dead
same,Freezing recovery,[11],do not show an ability to recover freezing phenotype
same,"Duration of freezing periods, recovery vs 6-OHDA treated larvae",[11],not recovered
same,"Locomotor behavior rescue (total distance moved, number of jumps), confirmation of screen","[13]; 7 candidate molecules, 3 independent experiments",strong candidates
same,Optimal concentration,[13],0.9 µM
same,Number of jumps: concentration validated as recovering the 6-OHDA induced behavior,[13],0.456 µM
same,"Total distance travelled, difference between treated larvae and disease control",[13],~200 mm
COC(=O)C(c1ccccc1)C1CCCCN1 (stereo not shown) [Methylphenidate],Freezing recovery,[11],more consistent freezing recovery
COC(=O)C1=C(C)NC(C)=C(C(=O)OC(C)C)C1c1cccc2nonc12 (stereo not shown) [Isradipine],Neurorescue,[5],confirmed
same,Effect of co-administration with L-Dopa on locomotor recovery,[8],lost its effect
same,Solubility,[15],25 mg/ml in
same,Optimal concentration,[13],0.045 µM
same,"Effective concentration / peak, small range plot","[13]; phenotype recovery, total distance moved",0.045 µM and 0.084 µM
